One test concerns B. bronchiseptica. Description: Contact germicidal efficiency (sterilization time). It is filed as cell-based, Bordetella bronchiseptica. As to the method: (§1) CONTACT GERMICIDAL EFFICIENCY OF N-CHLORAMINES AS A FUNCTION
(§2) ^a Time intervals screened 0.5, 1, 2, 3, 4 and 5 minutes.
(§3) ^a Time intervals screened 0.5, 1, 2, 3, 4, 5, 6, 7, 8, 9 and 10
(§4) ^a Time intervals screened 0.5, 1, 2, 3, 4, and 5 minutes.
(§5) ^b Time intervals screened 0.5, 1, 2, 3, 4, 5, 6, 7, 8, 9 and 10
(§6) Immediately preceding the screen, the compound is weighed and diluted with a buffer or other solvent to give the final concentration desired. The buffer or solvent chosen depends on the conditions of the screen and could be one of the following: 0.1 M NaOAc, pH 4.6; 0.1 M NaH2 PO4, pH 7.0; 0.1 M Na2 B4 O7, pH 8.8; 35% methanol in one of the aforementioned buffers; 10% Triton × 100 in buffer, etc.
(§7) The positive chlorine concentration of the test solution is then determined iodometrically.
(§8) Media used for the Screen are Nutrient Broth, BBL# 11479 and Nutrient Agar, BBL# 11472 prepared according to label directions. The broth is dispensed in 75 ml amounts of flasks for overnight cultures and in 5 ml amounts to culture tubes for subculturing during the Screen. Agar plates are prepared as usual.
(§9) Overnight cultures are prepared by inoculating from stock cultures into the 75 ml flasks of nutrient broth and incubating for 15 hours at 37° C.
(§10) The iodometrically characterized test solution is dispensed in 5 ml amounts to seven small stoppered flasks. The organisms are screened one at a time as follows:
(§11) A 0.2 ml portion of the overnight culture is inoculated into 5 ml of 0.9% NaCl for use in controls. A 0.2 ml portion of the overnight culture is inoculated into a flask containing 5 ml of the test solution, an automatic timer is simultaneously triggered and the solution mixed. At time intervals of 30 seconds, 1, 2, 3, 4, 5, 6, 7, 8, 9, and 10 minutes a loopful of the inoculated solution is subcultured into 5 ml of sterile nutrient broth and mixed by a Vortex Genie Mixer, the high dilution serving to stop the action of the compound. At the end of the ten minute screen, the entire procedure is repeated for each of the remaining six organisms. All of the subculture tubes are incubated at 37° C and checked for signs of growth by turbidity at 24 hr., 48 hr., 3, 5, and 7 days. The earliest subculture time at which no growth is present in the subculture tube is considered the endpoint and is recorded as that time, e.g., 7 minutes.
(§12) The test solution is prepared and characterized as above but is made up at twice the concentration desired. The solution is diluted 1:1 with Rehydrated Tissue Culture Dessicated Horse Serum, Difco #5357-72 and dispensed in a 5 ml amount to a small flask. The mixture is incubated at Room Temperature for 30 minutes to allow denaturation of the compound by the serum and then screened as above.
(§13) The 5 ml mixture of serum and test solution are prepared in sequence to allow as close to 30 minutes as possible before the beginning of the screen of each organism.
(§14) Bacteria: Staphylococcus aureas Smith (or 209), Escherichia coli AB 1932-1, 1100/B22 and Vogel, Streptococcus pyogenes C203 Salmonella typhimurium 14028, Bacillus subtilis 6051-1, Klebsiella pneumoniae 10031, Pseudomonas aeruginosa 9027, Bordetella bronchiseptica 4617 and Staphylococcus epidermidis 12228.

A further test deals with A. niger. Description: Minimal inhibitory concentration (MIC), Example V. The test is classed as cell-based. The conditions noted are these: Aspergillus niger. An excerpt:
(§15) MINIMAL INHIBITORY CONCENTRATION OF 2-AMINO-2-METHYL-1-PROPYL
(§16) ^a Minimal inhibitory concentration expressed in parts per million
(§17) sequence inhibited the test organism at the higher concentrations.
(§18) THE ANTIBACTERIAL SCREEN - EXAMPLE V

In test [1] the test system is E. coli. Description: Minimal inhibitory concentration (MIC), Example V. The test is classed as cell-based. Particulars: Escherichia coli.
From the text: as §15, §16, §17, §18

Another test concerns T. mentagrophytes. Put plainly: Minimal inhibitory concentration (MIC), Example V. The test is classed as cell-based. The conditions noted are these: Trichophyton mentagrophytes.
From the text: as §15, §16, §17, §18

For the next test, the system named is S. epidermidis. Description: Contact germicidal efficiency (sterilization time). The conditions noted are these: S. epidermidis. It is filed as cell-based, Staphylococcus epidermidis. As for the experimental part: as §1, §2, §3, §4, §5, §6, §7, §8, §9, §10, §11, §12, §13, §14
For the next test, the system named is S. aureus. Put plainly: Contact germicidal efficiency (sterilization time). The test is classed as cell-based, Staphylococcus aureus. Particulars: Example Y, pH 4.6, in presence of horse serum, 468 ppm (80 PPMCl+). As to the method:
(§19) CONTACT GERMICIDAL EFFICIENCY OF
as §2, §3, §4, §5, §6, §7
(§20) Media used for the Screen are Nutrient Broth, BBL# 11479 and Nutrient Agar, BBL# 11472 prepared according to label directions. The broth is dispensed in 75 ml amounts of flasks for overnight cultures and in 5 ml amounts to culture tubes for subculturing during the Screen. Agar plates are prepared as usual. […]
(§21) A 0.2 ml portion of the overnight culture is inoculated into 5 ml of 0.9% NaCl for use in controls. […] The earliest subculture time at which no growth is present in the subculture tube is considered the endpoint and is recorded as that time, e.g., 7 minutes. […]

The subject of test [2] is E. coli. Description: Contact germicidal efficiency (sterilization time). The test is classed as cell-based, Escherichia coli. Particulars: Example Y, pH 4.6, in presence of horse serum, 468 ppm (80 PPMCl+). As to the method: as §19, §2, §3, §4, §5, §6, §7, §20, §21
[3] abbreviates: Example X, pH 4.6, no horse serum, IV c 404 ppm (69 PPMCl+), IV g 489 ppm (143 PPMCl+).
[4] abbreviates: Example X, pH 7.0, no horse serum, IV c 1886 ppm (323 PPMCl+), IV g 409 ppm (120 PPMCl+).
Setting [5] is: Example X, pH 9.3, no horse serum, IV c 1704 ppm (292 PPMCl+), IV g 319 ppm (94 PPMCl+).
Setting [6] is: Example Y, pH 4.6, in presence of horse serum, 468 ppm (80 PPMCl+).

Molecules are shown by their SMILES.

The MIC is the lowest concentration that inhibits growth of the organism. Low values mean a more susceptible organism, high ones a less susceptible organism.

`CC(C)(COC(=O)C(C)(C)C)NCl` [IV c, 2-N-Chloroamino-2-methyl-1-propyl 2,2-dimethylproprionate]: the “Sterilization Time” value in the test on B. bronchiseptica (setting [3]) is 0.5 min; in the test on B. bronchiseptica (setting [4]), 1 min; in the test with B. bronchiseptica (setting [5]) it was 1 min; in the test on B. bronchiseptica (setting [6]) it was > 10 min; in the test with S. epidermidis (setting [3]) it was 0.5 min; in the test with S. epidermidis (setting [4]), 3 min. The “Sterilization Time” value is 4 min in the test on S. epidermidis (setting [5]), > 10 min in the test on S. epidermidis (setting [6]), > 10 min in the test on S. aureus and > 10 min with E. coli [2]. Also, the MIC against A. niger, against E. coli [1] and against T. mentagrophytes was > 250 µg/mL throughout.

For the origin of these results see patent US4092420A, “Novel soft N-chloroamino alcohol derivatives exhibiting antibacterial activity” (INTERx Research Corporation, priority 1977, dated 1978).
